# Assay results as given in US4758574A, “2-phenylimidazio (4,5-c) pyridines” (Eli Lilly and Company, priority 1986, dated 1988).
# Where a name gives a salt, the structure may show the parent alone. Read-outs that look alike come from different tables or passages of the source.
# Tests used:
# [1] = tested on: Ventricular Contractility in the Anesthetized Dog; experiment: Ventricular Contractility in the Anesthetized Dog; assay type: in vivo, Mongrel dogs; conditions: Canis lupus familiaris, iv, i.v. bolus, read-out: ED50 (dose required to produce a peak increase in contractility of 50%)
# Description: Experiments in Anesthetized Dogs Mongrel dogs of either sex ranging in weight from 7 to 14 kg. wer used. Anesthesia was induced with sodium pentobarbital (30 mg./kg., i.v.) and maintained with supplemental doses as required. A positive-pressure pump was used to ventilate the dogs through an endotracheal tube (18 strokes/minute, 20 ml./kg. stroke^-1), and a heating pad kept the body temperature at 37°-38° C. Femoral arterial blood pressure was measured through a polyethylene catheter filled with heparin solution (16 units/ml.) and connected to a Statham pressure transducer. A strain-gauge arch sutured to the right ventricle of the heart measured cardiac contractility. Tension on the gauge was adjusted to 50 g. and the gain of the recorder (Beckman dynograph) was set so that 50 g. caused a 10-mm. pen deflection; cardiac contractile tension was measured as millimeters of pen deflection or grams of tension. The drug was administered following a 30-45 minute equilibrium period as an i.v. bolus (2-5 ml.) in a normal saline vehicle. […] The maximum effects on contractility at various dose levels were determined and plotted and the dose required to produce a 50% increase in contractility (ED50) was determined by interpolation.
# Cat Papillary Muscles = experiment: Positive Inotropic Activity in Isolated Cat Papillary Muscles; assay type: cell-based; conditions: Felis catus, control = 100 percent, read-out: Contractility of Papillary Muscle (peak response); for activity at 100 µM: Drug Concentration 10^-4 M; for activity at 10 µM: Drug Concentration 10^-5 M
# Description: Positive Inotropic Activity in Isolated Cat Papillary Muscles […] A platinum hook secured one end of the muscle to an electrode mounted in the bottom of the bath, and a silk thread attached the tendon to a Statham isometric transducer. The baths contained Krebs-Henseleit solution (36° C., bubbled with 95 percent oxygen--5 percent carbon dioxide) of the following millimolar composition: NaCl, 118; KCl, 4.5; CaCl2, 2.5; KH2 PO4, 1.1; MgSO4, 1.2; NaHCO3, 25; and glucose, 11. A base-line tension of 1.5 g. was applied to each muscle. Square-wave pulses (5.0 msec. in duration, three times threshold voltage) delivered through the hook electrode and a second electrode positioned near the top of the muscle evoked 12 contractions/minute, which were recorded on a Grass polygraph. After the muscles had equilibrated for 60 minutes, the recorder gain was adjusted so that the pen deflected 10 mm. The drug was introduced in a solution of normal saline in an amount to bring the final concentration of the drug to 10^-5 or 10^-4 molar. Increases in contractility were tabulated as millimeters of pen deflection in excess of the baseline value. In each experiment the maximum contractility was measured. Test results are summarized in Table I and are expressed as percent of control (control=100 percent). Values are the average of results from 2 to 8 muscles.
# [2] = tested on: SRS-A release, guinea pig lung; experiment: Inhibition of SRS-A (Slow-Reacting Substance of Anaphylaxis) From Guinea Pig Lung; assay type: cell-based; conditions: Cavia porcellus, sensitized guinea pig lung, ovalbumin antigen, read-out: percent inhibition of SRS-A release
# Description: Inhibition of SRS-A (Slow-Reacting Substance of Anaphylaxis) From Guinea Pig Lung
# Male, Hartley guinea pigs, usually 1-2 weeks old, were sensitized with respect to ovalbumin by intraperitoneal administration of 0.15 ml. hyperimmune serum obtained from guinea pigs actively sensitized against ovalbumin. After 2 days or more, the animals were decapitated, lungs were excised and perfused through the pulmonary artery with Krebs' bicarbonate solution of the following composition in mmoles/liter: KCl, 4.6; CaCl2.2 H2 O, 1.8; KH2 PO4, 1.2; MgSO4.7H2 O, 1.2; NaCl, 118.2; NaHCO3, 24.8; and dextrose, 10.0. Poorly perfused and bloody areas were discarded. Normal lung was cut into 1 mm. cubes with a McIlwain tissue chopper, washed with Krebs' solution and divided into 400 mg. aliquots. The fragmented tissue was then incubated at 37° C. for 15 minutes in Krebs' solution containing indomethacin to optimize SRS-A release and an appropriate concentration of experimental drug. Antigen (ovalbumin) was then added to make a final concentration of 1×10^-5 g./ml. Fifteen minutes later, the incubation medium was decanted and centrifuged at 3,000×g at 4° C. for 5 minutes. […] Release of SRS-A in the presence of the experimental drug was compared to a control sample and the results expressed as percent inhibition of SRS-A release.
SMILES,ED50 [1],activity at 100 µM (Cat Papillary Muscles),activity at 10 µM (Cat Papillary Muscles),ED50 ([1]; tested as the hydrochloride salt),inhibition at 100 µM ([2]; 1×10^-4 M),inhibition at 10 µM ([2]; 1×10^-5 M)
"Cc1cccc(-c2nc3cnccc3[nH]2)c1 [Example 2, 2-(3-Methylphenyl)imidazo[4,5-c]pyridine]",1 mg/kg,181%,116%,–,–,–
"CS(=O)(=O)c1ccc(-c2nc3cnccc3[nH]2)cc1 [Example 4, 2-(4-Methylsulfonylphenyl)imidazo[4,5-c]pyridine hydrochloride]",7.5 mg/kg,139%,117%,–,–,–
"c1ccc(-c2nc3cnccc3[nH]2)cc1 [Example 7, 2-Phenylimidazo[4,5-c]pyridine]",–,192%,107%,2.5 mg/kg,–,–
"COc1ccc(-c2nc3cnccc3[nH]2)c(OC)c1 [Example 8, 2-(2,4-Dimethoxyphenyl)imidazo[4,5-c]pyridine hydrochloride]",0.27 mg/kg,172%,158%,–,45.1%,19.4%
"CSc1ccc(-c2nc3cnccc3[nH]2)cc1.Cl [Example 9, 2-(4-methylmercaptophenyl)imidazo[4,5-c]pyridine hydrochloride]",4 mg/kg,205%,113%,–,–,–
"CCOc1ccc(-c2nc3cnccc3[nH]2)cc1.Cl [Example 13, 2-(4-ethoxyphenyl)imidazo[4,5-c]pyridine hydrochloride]",2.5 mg/kg,157%,104%,–,–,–
"COc1ccc(-c2nc3cnccc3[nH]2)cc1.Cl [Example 15, 2-(4-methoxyphenyl)imidazo[4,5-c]pyridine hydrochloride]",1.7 mg/kg,204%,104%,–,–,–
"COc1cc(SC)ccc1-c1nc2cnccc2[nH]1.Cl [Example 23, 2-(2-methoxy-4-methylmercaptophenyl)imidazo[4,5-c]pyridine hydrochloride]",0.21 mg/kg,142%,141%,–,–,–
"Cc1ccc(-c2nc3cnccc3[nH]2)c(C)c1 [Example 24, 2-(2,4-dimethylphenyl)imidazo[4,5-c]pyridine hydrochloride]",1.4 mg/kg,94%,87%,–,–,–
"Cc1ccccc1-c1nc2cnccc2[nH]1 [Example 26, 2-(2-methylphenyl)imidazo[4,5-c]pyridine hydrochloride]",2.2 mg/kg,188%,106%,–,–,–
"COc1cc([S+](C)[O-])ccc1-c1nc2cnccc2[nH]1 (stereo not shown) [Example 27, 2-(2-methoxy-4-methylsulfinylphenyl)imidazo[4,5-c]pyridine]",0.03 mg/kg,200%,245%,–,–,–
"CCCOc1cc(OC)ccc1-c1nc2cnccc2[nH]1 [Example 29, 2-(2-n-propoxy-4-methoxyphenyl)imidazo[4,5-c]pyridine]",1.3 mg/kg,335%,134%,–,–,–
"COc1ccc(-c2nc3cnccc3[nH]2)c(OCCSC)c1 [Example 39, 2-[2-(β-methylmercaptoethoxy)-4-methoxyphenyl]imidazo[4,5-c]pyridine]",1.1 mg/kg,140%,118%,–,–,–
"CCCOc1cc(SC)ccc1-c1nc2cnccc2[nH]1 [Example 43, 2-(2-n-propoxy-4-methylmercaptophenyl)imidazo[4,5-c]pyridine]",2.2 mg/kg,–,–,–,–,–
"CCSCCOc1cc(OC)ccc1-c1nc2cnccc2[nH]1.Cl [Example 45, 2-[2-(β-ethylmercaptoethoxy)-4-methoxyphenyl]imidazo[4,5-c]pyridine h ydrochloride]",1 mg/kg,125%,122%,–,–,–
"Clc1ccc(-c2nc3cnccc3[nH]2)c(Cl)c1 [Example 47, 2-(2,4-dichlorophenyl)imidazo[4,5-c]pyridine]",0.67 mg/kg,157%,105%,–,–,–
"COc1cc(S(C)(=O)=O)ccc1-c1nc2cnccc2[nH]1 [Example 50, 2-(2-methoxy-4-methylsulfonylphenyl)imidazo[4,5-c]pyridine]",0.02 mg/kg,221%,176%,–,–,–
"COc1ccc(-c2nc3cnccc3[nH]2)c(OCC[S+](C)[O-])c1 (stereo not drawn) [Example 52, 2-[2-(β-methylsulfinylethoxy)-4-methoxyphenyl]imidazo[4,5-c]pyridine]",5.2 mg/kg,185%,122%,–,–,–
"COc1ccc(-c2nc3cnccc3[nH]2)c(OCC[S+]([O-])c2ccccc2)c1 (stereo not drawn) [Example 53, 2-[2-(β-phenylsulfinylethoxy)-4-methoxyphenyl]imidazo[4,5-c]pyridine]",–,96%,107%,–,–,–
"CCCOc1cc([S+](C)[O-])ccc1-c1nc2cnccc2[nH]1 (stereo not shown) [Example 54, 2-(2-n-propoxy-4-methylsulfinylphenyl)imidazo[4,5-c]pyridine]",1 mg/kg,159%,122%,–,–,–
"COc1ccc(-c2nc3cnccc3[nH]2)cc1OC.Cl [Example 56, 2-(3,4-dimethoxyphenyl)imidazo[4,5-c]pyridine hydrochloride]",0.38 mg/kg,252%,163%,–,–,–
"COc1cc(Br)ccc1-c1nc2cnccc2[nH]1 [Example 57, 2-(2-methoxy-4-bromophenyl)imidazo[4,5-c]pyridine hydrochloride]",–,175%,134%,–,–,–
"COc1cc(C(F)(F)F)ccc1-c1nc2cnccc2[nH]1.Cl [Example 59, 2-(2-Methoxy-4-trifluoromethylphenyl)imidazo[4,5-c]pyridine hydrochloride]",0.005 mg/kg,134%,139%,–,–,–
"COc1cc([N+](=O)[O-])ccc1-c1nc2cnccc2[nH]1 [Example 60, 2-(2-Methoxy-4-nitrophenyl)imidazo[4,5-c]pyridine]",0.015 mg/kg,145%,142%,–,–,–
